Results on 8 compounds are retold here after patent publication US10543223B2, “Mannose derivatives useful for treating pathologies associated with adherent E. coli” (ENTEROME, priority 2015, dated 2020).

Usually Kd stands for the concentration at which binding is half-saturated. Lower therefore signals higher affinity.

≈ marks a conversion by molar mass, not a printed value.

The test system of data set [1] is uropathogenic E. coli strain UTI89. As to the kind of experiment: Hemagglutination inhibition assay, guinea pig erythrocytes, E. coli strain UTI89. The format is cell-based. The settings on record: for MIC: Escherichia coli, read-out: minimal inhibitory concentration (MIC) / inhibition titer of haemagglutination; for inhibition of UTI89-induced hemagglutination (in words): FIG. 1. The method, then: Interaction of E. coli FimH adhesins with the glycocalyx of guinea pig erythrocytes forms a crosslinked network in the wells. Glycoconjugates, added in a 2-fold dilution series, prevent the agglutination reaction. The inhibition titer is defined as the lowest concentration of the glycoconjugate at which hemagglutination is still inhibited. Several strains of E. coli were grown statically overnight in LB at 37° C., washed three times in ice-cold phosphate-buffered saline, and redissolved. A 2-fold dilution of glycoconjugates with a starting concentration of 1 mM was prepared in 25 μL of PBS with 10% of DMSO. Importantly, the pipet tip was changed at every dilution step to avoid carry-over. Next, the bacterial solution (25 μL) was added to the 2-fold dilution series of the compound. Finally, 50 μL of guinea pig red blood cells, washed and diluted in the buffer to 5% of the blood volume, was added to reach 100 μL. The plates were left on ice for one night before read-out.
Inhibition of E. coli Strain UTI89 Isolated from Patient with Urinary Tract Infection.
The anti-adhesive capacity of the inhibitors was evaluated against ten E. coli strains isolated from CD patients, urinary tract infections, and hip prosthesis infections.

In data set [2] the test system is AIEC strain LF82. As to the kind of experiment: Adhesion assay of AIEC LF82 strain on intestinal epithelial cells T84 (pre- and post-incubation). The data set is classed as cell-based, E. coli. The following applies: pre-incubation (10 μM) and post-incubation (50 μM) protocols. The procedure: E. coli strain LF82 isolated from an ileal biopsy of a CD patient was used as the AIEC reference strain. Bacteria were grown overnight at 37° C. in Luria-Bertani (LB) broth, and a bacterial suspension was prepared at a concentration of 1.5×10^8 bacteria/mL in phosphate buffer saline (PBS) for adhesion assays. The human intestinal cell line T84, purchased from American Type Culture Collection (ATCC, CCL-248), was maintained in an atmosphere containing 5% CO2 at 37° C. in the culture medium recommended by ATCC. T84 cells were seeded in 48-well tissue culture plates at a density of 1.5×10^5 cells/well and incubated at 37° C. for 48 h.
AIEC reference strain LF82 was incubated for 1 h with HM or thiazole-bearing mannosides at final concentrations of 0.1, 1, or 10 μM, then bacteria/mannosides solution were incubated with T84 cells in order to have a multiplicity of infection (MOI) of 10 bacteria per cell (1.5×10^6 bacteria/well) for 3 h with. Effects of mannoside treatment were compared with HM. Monolayers were washed three times with PBS and lysed with 1% Triton X-100 (Sigma) in deionized water. Samples were diluted and plated onto LB agar plates to determine the number of colony-forming units (CFU). […]

Data set [3] is described as follows: Faeces concentrations and recovery after IV and PO administration to rats. The format is in vivo, Sprague Dawley rats. The following applies: Sprague Dawley, rat, faeces, po, 10 mg/kg, PO 10 mg/kg, 0-24 h, mean of 3 rats; read-out: Recovery in faeces, mean (quantity found in faeces out of the administered quantity). The method, then:
Plasma and faeces concentrations after administration of Compound 1b and for compound 13 of WO 2014/016361 at 1 mg/kg by intravenous route and 10 mg/kg by oral route to Sprague Dawley rats Blank rat faeces are homogenized with 3 volumes of UHQ water until obtention of a paste. Then 100 μL of the homogenate are spiked with the molecules and precipitated with 300 μL of acetonitrile. The concentration ranges tested are: • 0.5 ng/mL to 1000 ng/mL for plasma, • 4 to 2000 ng/g for faeces, corresponding to 1 to 500 ng/mL of faeces homogenate. 3. In-Life Part After administration, the animals are placed in individual metabolic cages in order to collect faeces samples during 24 hours. Faeces samples are collected over the 24 hours of the experiment. They are precisely weighed and 3 volumes of UHQ water are added. The mixture is homogeneized until obtention of a paste. Then 100 μL of the homogenate are taken and extracted with 300 μL of Acetonitrile. Analysis is performed using LC-MS/MS determination according to previous analytical test results.

Data set [4] in a line: Stability test in 0.1 M HCl (anomerization followed by 1H NMR). The format is physicochemical. The settings on record: for isomerization to the β-mannose derivative under acidic conditions: samples at t=0, 1 h, 2 h and 8 h, 1H NMR in D2O. The procedure:
Compound 6 of WO 2014/016361 was dissolved in 0.1 M HCl and sample were freeze dried at t=0, 1 h, 2 h and 8 h (see FIG. 10). […] Indeed, under the acidic conditions, an equimolar α/β mixture at T=0 anomerize to a 1/3 α/β mixture at T=8 h.

The test system of data set [5] is cystitis murine model. The settings on record: Wellens et al, 2008; cited from earlier work.
The subject of data set [6] is AIEC. The settings on record: in vivo; cited from earlier work.
In data set [7] the target is T1, FimH lectin domain (residues 1-158) from E. coli strain UTI89 (Escherichia coli, UniProt Q1R2J4).
T1 construct: FimH lectin domain (residues 1-158) from E. coli strain UTI89; made in house
As to the kind of experiment: Isothermal titration calorimetry of FimH lectin domain. The format is binding. The method, then:
The recombinantly expressed FimH lectin domain (residues 1-158) from E. coli strain UTI89 was purified as described previously by Wellens et al. The FimH protein solution was put into the measurement cell (1452 μl) of a VP-ITC microcalorimeter (Malvern), at a concentration of 11.83 μM in the ITC working buffer (20 mM Na-Hepes at pH 7.4 and 150 mM NaCl). Compound 3c at 100 μM concentration was titrated into the FimH solution using 38 injections of 7 μl, leading to 38 heat peaks measured in μcal/sec (FIG. 12). The heat peaks were integrated (kCal/mole of injectant) to be presented in an enthalpogram with 38 data points (FIG. 12), used for the fitting to the model of one kind of binding sites (Microcal ITC Origin software) in order to derive the affinity (K) and the stoichiometry (N) of the interaction (FIG. 13). Using the constant absolute temperature (T) of the experiment, the entropic contribution ΔS was calculated (FIG. 13).
(In general: In ITC the heat of successive injections is recorded.)

With `Cc1nc(-c2cnccn2)sc1C(=O)c1cnc(NC[C@H]2O[C@H](CO)[C@@H](O)[C@H](O)[C@@H]2O)s1` [Compound 2d, 5-(4-methyl-2-(pyrazin-2-yl)thiazol-5-ylcarbonyl)-2-(((α-D-mannopyranosyl)methyl)amino)-thiazole], in data set [1], the MIC worked out at 3.12 µM (≈ 1.5 µg/mL) and the “inhibition of UTI89-induced hemagglutination (in words)” value (“inhibition” below) is listed as “potent inhibitors”.
On to `CC(=O)c1cnc(SC[C@H]2O[C@H](CO)[C@@H](O)[C@H](O)[C@@H]2O)s1` [Compound 2b, 5-acetyl-2-((α-D-mannopyranos-1-yl)methylthioxy)thiazole], for which the “potency to inhibit attachment of LF82 to T84 cells compared with heptylmannoside” value in data set [2] is listed as “more potent than the reference compound heptylmannoside”.
Turning to `Cc1nc(-c2cnccn2)sc1C(=O)c1cnc(N[C@H]2O[C@H](CO)[C@@H](O)[C@H](O)[C@@H]2O)s1` [Compound 13 of WO 2014/016361, reference compound], the dose excreted in data set [3] was determined as 52.4%.
As to `CC(=O)c1cnc(N[C@H]2O[C@H](CO)[C@@H](O)[C@H](O)[C@@H]2O)s1` [6 of WO 2014/016361], the α/β mixture ratio in data set [4] (T=8 h, equimolar α/β mixture at T=0) was 1/3. For the same compound, in data set [4], the “isomerization to the β-mannose derivative under acidic conditions” value is on record as “isomerizes to the corresponding β-mannose derivative”.
Regarding `CCCCCCCO[C@H]1O[C@H](CO)[C@@H](O)[C@H](O)[C@@H]1O` [HM, heptylmannose], the “inhibition” value in data set [1] is on record as “potent inhibitors”. Moreover, the “concentration required to observe a significant bacterial load reduction” value in data set [5] is reported as “millimolar”. The “effect with AIEC in CEABAC 10 Crohn's disease model” value in data set [6] is on record as “no effect”.
Regarding `Cc1nc(NCc2cn(CC3OC(CO)C(O)C(O)C3O)nn2)sc1C(=O)c1cnc(NCC2OC(CO)C(O)C(O)C2O)s1` (centres unmarked) [Compound 3c], the Kd in data set [7] turned out to be 0.0546 µM. Also, the ΔH in data set [7] (ITC) was -23.630 ± 0.3755 kcal/mol. Moreover, the ΔS in data set [7] (ITC, calculated using T of the experiment) is on record as −46.8 cal/mol/deg. Also, the “n (stoichiometry)” value in data set [7] (ITC, one kind of binding sites model) is 0.874+/−0.00868 sites.
Turning to `CC(=O)c1cnc(NC[C@H]2O[C@H](CO)[C@@H](O)[C@H](O)[C@@H]2O)s1` [Compound 2c], the “potency relative to HM at disrupting E. coli promoted hemagglutination” value in data set [1] (E. coli UTI89) was determined as 8 fold. In data set [1], the MIC came out at 0.098 µM (≈ 0.0312 µg/mL) and the “inhibition” value is recorded as “potent inhibitors”.
Regarding `CC(=O)c1cnc(C[C@H]2O[C@H](CO)[C@@H](O)[C@H](O)[C@@H]2O)s1` [Compound 1a, 5-acetyl-2-((α-D-mannopyranos-1-yl)methyl)thiazole], in data set [4], the “isomerization to the β-mannose derivative under acidic conditions” value is on record as “does not isomerize”.
